pEC50, pIC50: −log10 of the molar value.
Columns and labels:
[1] = molecular target: Dual specificity tyrosine-phosphorylation-regulated kinase 1A (Rattus norvegicus, UniProt Q63470); experiment: Inhibition of recombinant rat DYRK1A kinase domain (1 to 499 residues) extracted from bacteria using KKISGRLSPIMTEQ as substrate incubated for 30 mins in presence of ATP by ADP-Glo kinase assay
[2] = molecular target: T1, Serine/threonine-protein kinase haspin (Homo sapiens) (UniProt Q8TF76); experiment: Inhibition of recombinant human haspin kinase domain (470 to 798 residues) extracted from bacteria using histone H3 (1 to 21) peptide as substrate assessed as residual activity at 1 uM incubated for 30 mins in presence of ATP by ADP-Glo kinase assay relative to control
T1 sequence (whole entry): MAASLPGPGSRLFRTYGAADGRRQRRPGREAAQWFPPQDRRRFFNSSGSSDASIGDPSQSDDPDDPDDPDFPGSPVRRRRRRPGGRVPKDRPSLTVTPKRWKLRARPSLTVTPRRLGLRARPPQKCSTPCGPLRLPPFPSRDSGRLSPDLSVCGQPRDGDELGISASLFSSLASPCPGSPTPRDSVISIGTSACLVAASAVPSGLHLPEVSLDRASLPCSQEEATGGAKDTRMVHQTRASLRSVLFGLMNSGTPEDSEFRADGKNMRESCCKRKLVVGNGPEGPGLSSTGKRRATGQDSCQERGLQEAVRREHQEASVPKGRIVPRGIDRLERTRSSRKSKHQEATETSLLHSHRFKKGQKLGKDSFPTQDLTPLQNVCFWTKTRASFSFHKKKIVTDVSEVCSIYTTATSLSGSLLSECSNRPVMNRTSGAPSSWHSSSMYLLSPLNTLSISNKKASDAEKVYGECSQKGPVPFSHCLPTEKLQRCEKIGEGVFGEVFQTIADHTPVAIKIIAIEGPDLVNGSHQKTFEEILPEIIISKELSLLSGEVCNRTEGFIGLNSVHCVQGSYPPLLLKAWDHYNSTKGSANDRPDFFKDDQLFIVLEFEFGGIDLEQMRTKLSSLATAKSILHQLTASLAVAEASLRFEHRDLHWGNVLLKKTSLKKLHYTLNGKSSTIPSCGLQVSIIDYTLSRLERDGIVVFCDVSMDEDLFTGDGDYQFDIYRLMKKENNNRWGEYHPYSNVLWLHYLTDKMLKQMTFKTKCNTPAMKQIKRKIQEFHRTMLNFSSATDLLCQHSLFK

[3] = molecular target: Casein kinase I isoform epsilon (Homo sapiens) (UniProt P49674); experiment: Inhibition of recombinant human CK1epsilon extracted from baculovirus infected Sf9 cells using RRKHAAIGSpAYSITA peptide as substrate assessed as enzyme residual activity at 1 uM incubated for 30 mins in presence of ATP by ADP-Glo kinase assay relative to control
[4] = Selectivity index, ratio of IC50 for inhibition of recombinant rat DYRK1A kinase domain (1to 499 residues) extracted from bacteria to IC50 for inhibition of human haspin kinase domain (470 to 798 residues) extracted from bacteria using histone H3 (1 to 21) peptide as substrate
[5] = Inhibition of recombinant human CDK9/Cyclin T extracted from baculovirus infected Sf9 cells using YSPTSPSYSPTSPSYSPTSPSKKKK as substrate assessed as enzyme residual activity at 10 uM incubated for 30 mins in presence of ATP by ADP-Glo kinase assay relative to control
[6] = molecular target: T2, Serine/threonine-protein kinase pim-1 (Homo sapiens, UniProt P11309); experiment: Inhibition of recombinant human PIM-1 extracted from bacteria using histone H1 as substrate assessed as enzyme residual activity at 1 uM incubated for 30 mins in presence of ATP by ADP-Glo kinase assay relative to control
Target sequence in this assay (P11309 whole entry, looked up): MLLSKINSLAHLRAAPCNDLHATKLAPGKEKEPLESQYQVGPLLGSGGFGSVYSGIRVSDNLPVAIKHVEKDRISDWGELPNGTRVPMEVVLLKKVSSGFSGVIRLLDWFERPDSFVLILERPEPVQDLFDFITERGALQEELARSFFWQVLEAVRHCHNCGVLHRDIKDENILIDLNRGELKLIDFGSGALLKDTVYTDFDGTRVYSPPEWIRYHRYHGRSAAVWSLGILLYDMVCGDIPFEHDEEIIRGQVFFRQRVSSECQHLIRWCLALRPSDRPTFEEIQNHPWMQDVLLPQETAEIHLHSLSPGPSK

[7] = molecular target: Glycogen synthase kinase-3 beta (Homo sapiens) (UniProt P49841); experiment: Inhibition of recombinant human GSK3beta extracted from baculovirus infected Sf9 cells using GS-1 (YRRAAVPPSPSLSRHSSPHQSpEDEEE) peptide as substrate assessed as enzyme residual activity at 10 uM incubated for 30 mins in presence of ATP by ADP-Glo kinase assay relative to control
[8] = molecular target: T3, Cyclin-dependent kinase 5/CDK5 activator 1 (Homo sapiens) (UniProt Q00535+Q15078); experiment: Inhibition of recombinant human CDK5/p25 extracted from bacteria using histone H1 as substrate assessed as enzyme residual activity at 10 uM incubated for 30 mins in presence of ATP by ADP-Glo kinase assay relative to control; format: protein-complex assay
[9] = molecular target: Dual specificity tyrosine-phosphorylation-regulated kinase 1A (Rattus norvegicus) (UniProt Q63470); experiment: Inhibition of recombinant rat DYRK1A kinase domain (1 to 499 residues) extracted from bacteria using KKISGRLSPIMTEQ as substrate assessed as enzyme residual activity at 10 uM incubated for 30 mins in presence of ATP by ADP-Glo kinase assay relative to control
[10] = molecular target: Dual specificity tyrosine-phosphorylation-regulated kinase 1A (Rattus norvegicus) (UniProt Q63470); experiment: Inhibition of recombinant rat DYRK1A kinase domain (1 to 499 residues) extracted from bacteria using KKISGRLSPIMTEQ as substrate assessed as enzyme residual activity at 1 uM incubated for 30 mins in presence of ATP by ADP-Glo kinase assay relative to control
[11] = molecular target: Dual specificity protein kinase CLK1 (Mus musculus) (UniProt P22518); experiment: Inhibition of recombinant mouse CLK1 extracted from bacteria using GRSRSRSRSRSR as substrate assessed as enzyme residual activity at 10 uM incubated for 30 mins in presence of ATP by ADP-Glo kinase assay relative to control
[12] = molecular target: T1, Serine/threonine-protein kinase haspin (Homo sapiens); experiment: Inhibition of recombinant human haspin kinase domain (470 to 798 residues) extracted from bacteria using histone H3 (1 to 21) peptide as substrate assessed as residual activity at 10 uM incubated for 30 mins in presence of ATP by ADP-Glo kinase assay relative to control
[13] = molecular target: Glycogen synthase kinase-3 beta (Homo sapiens) (UniProt P49841); experiment: Inhibition of recombinant human GSK3beta extracted from baculovirus infected Sf9 cells using GS-1 (YRRAAVPPSPSLSRHSSPHQSpEDEEE) peptide as substrate assessed as enzyme residual activity at 1 uM incubated for 30 mins in presence of ATP by ADP-Glo kinase assay relative to control
[14] = Inhibition of recombinant human CDK9/Cyclin T extracted from baculovirus infected Sf9 cells using YSPTSPSYSPTSPSYSPTSPSKKKK as substrate assessed as enzyme residual activity at 1 uM incubated for 30 mins in presence of ATP by ADP-Glo kinase assay relative to control
[15] = molecular target: Casein kinase I isoform epsilon (Homo sapiens) (UniProt P49674); experiment: Inhibition of recombinant human CK1epsilon extracted from baculovirus infected Sf9 cells using RRKHAAIGSpAYSITA peptide as substrate assessed as enzyme residual activity at 10 uM incubated for 30 mins in presence of ATP by ADP-Glo kinase assay relative to control
[16] = molecular target: T3, Cyclin-dependent kinase 5/CDK5 activator 1 (Homo sapiens); experiment: Inhibition of recombinant human CDK5/p25 extracted from bacteria using histone H1 as substrate assessed as enzyme residual activity at 1 uM incubated for 30 mins in presence of ATP by ADP-Glo kinase assay relative to control; format: protein-complex assay
[17] = molecular target: T2, Serine/threonine-protein kinase pim-1; experiment: Inhibition of recombinant human PIM-1 extracted from bacteria using histone H1 as substrate assessed as enzyme residual activity at 10 uM incubated for 30 mins in presence of ATP by ADP-Glo kinase assay relative to control
Target sequence in this assay (P11309 whole entry, looked up): as the sequence (P11309 whole entry, looked up) above

[18] = molecular target: Dual specificity protein kinase CLK1 (Mus musculus) (UniProt P22518); experiment: Inhibition of recombinant mouse CLK1 extracted from bacteria using GRSRSRSRSRSR as substrate assessed as enzyme residual activity at 1 uM incubated for 30 mins in presence of ATP by ADP-Glo kinase assay relative to control
[19] = molecular target: T4, Serine/threonine-protein kinase haspin (Homo sapiens, UniProt Q8TF76); experiment: Inhibition of recombinant human haspin kinase domain (470 to 798 residues) extracted from bacteria using histone H3 (1 to 21) peptide as substrate incubated for 30 mins in presence of ATP by ADP-Glo kinase assay
T4 sequence (Q8TF76 whole entry): T1 sequence (whole entry)

[20] = molecular target: Dual specificity protein kinase CLK1 (Mus musculus, UniProt P22518); experiment: Inhibition of recombinant mouse CLK1 extracted from bacteria using GRSRSRSRSRSR as substrate incubated for 30 mins in presence of ATP by ADP-Glo kinase assay
[21] = molecular target: T1, Serine/threonine-protein kinase haspin (Homo sapiens); experiment: Inhibition of haspin in human U2OS cells assessed as at 1 uM incubated for 16 hrs by DAPI staining based immunofluorescence analysis relative to control; format: cell-based
U2OS = experiment: Antiproliferative activity against human U2OS cells assessed as inhibition of cell viability incubated for 48 hrs by MTS assay; format: functional, cell-based
HCT-116 = experiment: Antiproliferative activity against human HCT-116 cells assessed as inhibition of cell viability incubated for 48 hrs by MTS assay; format: functional, cell-based; conditions: HCT-116, 48 h
[22] = molecular target: T1, Serine/threonine-protein kinase haspin (Homo sapiens); experiment: Inhibition of haspin in human U2OS cells assessed as at 5 uM incubated for 16 hrs by DAPI staining based immunofluorescence analysis relative to control; format: cell-based
[23] = Cytotoxicity against human hTERT-RPE1 cells assessed as effect on cell viability incubated for 48 hrs by MTS assay; format: toxicity, cell-based, TERT-RPE1
SH-SY5Y = experiment: Antiproliferative activity against human SH-SY5Y cells assessed as inhibition of cell viability incubated for 48 hrs by MTS assay; format: functional, cell-based
[24] = molecular target: T2, Serine/threonine-protein kinase pim-1; experiment: Inhibition of recombinant human PIM-1 extracted from bacteria using histone H1 as substrate incubated for 30 mins in presence of ATP by ADP-Glo kinase assay
Target sequence in this assay (P11309 whole entry): as the sequence (P11309 whole entry, looked up) above

HBL-100 = experiment: Antiproliferative activity against human HBL-100 cells assessed as inhibition of cell viability incubated for 48 hrs by MTS assay; format: functional, cell-based; conditions: HBL-100, 48 h

Sequence of Dual specificity protein kinase CLK1 (P22518 whole entry): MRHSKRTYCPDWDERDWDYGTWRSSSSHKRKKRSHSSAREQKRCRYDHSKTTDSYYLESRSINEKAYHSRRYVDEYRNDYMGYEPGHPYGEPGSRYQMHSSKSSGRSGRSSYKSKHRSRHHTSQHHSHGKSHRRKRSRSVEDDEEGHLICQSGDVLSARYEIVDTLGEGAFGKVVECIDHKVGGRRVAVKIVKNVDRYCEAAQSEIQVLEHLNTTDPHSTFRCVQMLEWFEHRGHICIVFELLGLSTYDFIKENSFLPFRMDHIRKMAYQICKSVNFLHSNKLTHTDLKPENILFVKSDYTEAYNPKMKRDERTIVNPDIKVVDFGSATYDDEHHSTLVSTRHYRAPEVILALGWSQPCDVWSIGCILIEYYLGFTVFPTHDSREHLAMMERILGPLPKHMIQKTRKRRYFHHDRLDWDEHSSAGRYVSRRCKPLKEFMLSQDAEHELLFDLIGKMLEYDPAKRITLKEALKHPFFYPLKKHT
Sequence of Dual specificity protein kinase CLK1 (Mus musculus) (P22518 whole entry, looked up, the tested form may be a part): as the sequence (P22518 whole entry) above
Sequence of Glycogen synthase kinase-3 beta (Homo sapiens) (P49841 whole entry, looked up): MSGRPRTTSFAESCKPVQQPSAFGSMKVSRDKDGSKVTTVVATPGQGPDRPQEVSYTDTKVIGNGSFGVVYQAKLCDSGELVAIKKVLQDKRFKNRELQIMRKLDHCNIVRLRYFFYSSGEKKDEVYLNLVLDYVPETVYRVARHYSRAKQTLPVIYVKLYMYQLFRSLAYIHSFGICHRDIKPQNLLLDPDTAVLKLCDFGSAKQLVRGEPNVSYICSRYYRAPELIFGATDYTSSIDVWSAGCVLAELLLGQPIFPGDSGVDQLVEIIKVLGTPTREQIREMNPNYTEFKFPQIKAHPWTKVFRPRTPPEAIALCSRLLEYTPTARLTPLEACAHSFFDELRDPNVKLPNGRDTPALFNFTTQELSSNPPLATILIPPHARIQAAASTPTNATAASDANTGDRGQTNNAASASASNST
T3 sequence (Q00535 whole entry, the tested form may be a part): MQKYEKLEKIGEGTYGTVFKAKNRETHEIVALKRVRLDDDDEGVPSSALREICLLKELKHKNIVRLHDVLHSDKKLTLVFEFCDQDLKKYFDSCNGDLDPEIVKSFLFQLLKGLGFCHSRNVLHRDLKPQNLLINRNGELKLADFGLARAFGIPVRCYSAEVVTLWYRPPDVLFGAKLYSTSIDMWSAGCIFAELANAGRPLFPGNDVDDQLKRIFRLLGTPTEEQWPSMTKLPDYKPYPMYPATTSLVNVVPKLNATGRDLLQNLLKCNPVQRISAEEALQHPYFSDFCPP
T3 sequence (Q15078 99-307 partner limits assumed): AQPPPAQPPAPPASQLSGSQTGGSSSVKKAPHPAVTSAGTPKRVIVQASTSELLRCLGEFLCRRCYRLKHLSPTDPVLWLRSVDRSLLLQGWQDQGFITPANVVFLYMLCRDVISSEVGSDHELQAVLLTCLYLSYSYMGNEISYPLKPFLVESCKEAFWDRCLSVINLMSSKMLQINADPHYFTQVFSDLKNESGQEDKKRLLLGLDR
Sequence of Casein kinase I isoform epsilon (Homo sapiens) (P49674 whole entry, looked up, the tested form may be a part, canonical isoform): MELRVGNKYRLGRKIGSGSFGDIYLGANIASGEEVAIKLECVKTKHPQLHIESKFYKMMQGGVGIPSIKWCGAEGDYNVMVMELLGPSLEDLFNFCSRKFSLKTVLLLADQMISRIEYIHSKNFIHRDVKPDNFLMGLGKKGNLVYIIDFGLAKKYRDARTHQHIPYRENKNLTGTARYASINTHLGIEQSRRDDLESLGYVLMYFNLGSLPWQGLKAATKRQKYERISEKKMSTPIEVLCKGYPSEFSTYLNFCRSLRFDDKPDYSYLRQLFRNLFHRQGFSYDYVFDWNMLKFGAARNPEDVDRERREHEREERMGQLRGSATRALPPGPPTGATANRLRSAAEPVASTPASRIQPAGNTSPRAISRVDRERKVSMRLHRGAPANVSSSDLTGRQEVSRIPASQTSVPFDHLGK

Row | Structure (SMILES) | pIC50 [1] | Activity [2] | Activity [3] | Activity [5] | Activity [6] | Activity [7] | Activity [8] | Activity [9] | Activity [10] | Activity [11] | Activity [12] | Activity [13] | Activity [14] | Activity [15] | Activity [16] | Activity [17] | Activity [18] | pIC50 [19] | pIC50 [20] | pEC50 (U2OS) | other results
1 | c1ccc(-c2c[nH]c3cc4cnccc4cc23)nc1 | 6.80 | 8% | 97% | 49% | 63% | 72% | 35% | 11% | 27% | 10% | 3% | 84% | 90% | 90% | 72% | 19% | 27% | 7.07 | 6.41 |  | Ratio IC50 [4]: 1.9
2 | CCCNc1ccc2ncc(-c3ccc4[nH]ncc4c3)n2n1 |  |  |  |  |  |  |  |  |  |  |  |  |  |  |  |  |  |  |  |  | inhibition [21]: 100%
3 | Cn1cc(-c2cccnc2)c2cc3ccncc3cc21 | 6.30 | 9% | 94% | 39% | 45% | 34% | 75% | 12% | 33% | 7% | 3% | 69% | 81% | 65% | 79% | 54% | 18% | 7.50 | 6.75 | 4.94 | pEC50 (HCT-116): 4.82; inhibition [22]: No effect; EC50 at 48 h [23]: 17800 nM; pEC50 (SH-SY5Y): 4.75; pIC50 [24]: 6.06; pEC50 (HBL-100): 4.57
4 | c1cncc(-c2c[nH]c3cc4cnccc4cc23)c1 | 6.22 | 7% | 91% | 39% | 37% | 37% | 57% | 6% | 36% | 8% | 2% | 75% | 74% | 70% | 86% | 22% | 19% | 7.51 | 6.62 | 4.57 | pEC50 (HCT-116): 4.89; inhibition [22]: 26%; EC50 at 48 h [23]: 18200 nM; pEC50 (SH-SY5Y): 4.39; pIC50 [24]: 6.94; pEC50 (HBL-100): < 4.30
5 | Cn1cc(-c2ccncc2)c2cc3ccncc3cc21 | 6.47 | 7% | 72% | 59% | 37% | 92% | 44% | 9% | 23% | 13% | 5% | 74% | 97% | 42% | 63% | 18% | 35% | 7.63 | 6.26 | 5.49 | pEC50 (HCT-116): 5.68; inhibition [22]: 37%; EC50 at 48 h [23]: 2300 nM; pEC50 (SH-SY5Y): 5.19; pIC50 [24]: 5.89; pEC50 (HBL-100): 5.18
